Measured values published in US20250230165A1, “HETEROCYCLIC COMPOUNDS FOR USE IN THE TREATMENT OF CANCER” (ARTIOS PHARMA LIMITED, priority 2021, published 2025).

Biological target: T1, Human Polθ polymerase domain (aa1820-2590) (Homo sapiens, UniProt O75417)
T1 construct: Human Polθ polymerase domain (aa1820-2590) was expressed in E. coli; made in house; host or cells: E. coli
T1 sequence (O75417 1820-2590): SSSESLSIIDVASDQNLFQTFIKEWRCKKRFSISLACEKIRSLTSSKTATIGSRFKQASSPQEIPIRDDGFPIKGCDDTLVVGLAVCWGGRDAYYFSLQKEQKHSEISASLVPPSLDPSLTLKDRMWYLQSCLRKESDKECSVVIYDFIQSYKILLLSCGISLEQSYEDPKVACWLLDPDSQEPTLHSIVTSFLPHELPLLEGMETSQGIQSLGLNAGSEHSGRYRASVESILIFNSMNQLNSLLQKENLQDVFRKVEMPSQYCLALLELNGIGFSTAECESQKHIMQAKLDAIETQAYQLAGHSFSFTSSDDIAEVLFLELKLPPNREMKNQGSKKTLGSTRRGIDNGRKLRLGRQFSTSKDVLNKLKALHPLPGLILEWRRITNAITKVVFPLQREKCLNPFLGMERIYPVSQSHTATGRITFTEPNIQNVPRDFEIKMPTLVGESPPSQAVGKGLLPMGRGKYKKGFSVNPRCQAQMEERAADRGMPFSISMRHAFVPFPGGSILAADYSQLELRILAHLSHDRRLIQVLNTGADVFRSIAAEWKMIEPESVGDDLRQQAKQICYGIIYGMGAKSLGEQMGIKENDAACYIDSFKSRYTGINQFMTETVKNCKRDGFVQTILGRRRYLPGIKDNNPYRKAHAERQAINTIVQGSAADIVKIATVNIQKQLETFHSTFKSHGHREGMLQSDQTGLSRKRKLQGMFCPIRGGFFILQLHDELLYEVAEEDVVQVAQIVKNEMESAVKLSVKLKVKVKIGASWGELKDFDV
Test: Polθ Polymerase Domain Kinact/KI Assay (PicoGreen)
Assay type: biochemical
Details: 0.8 nM Polθ, 100 nM DNA substrate, kobs vs [I] fit for 2-step covalent inhibitor
Outline: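 Enzyme 0.8 nM, annealed DNA substrate 100 nM, […]; 25 mM Tris pH 7.5, 5% glycerol, 0.01% Triton X-100, 0.1 mg/ml BSA, 1 mM DTT, 1% DMSO. Quench with EDTA at timepoints to 60 min; PicoGreen read. kobs from time courses → Kinact/KI.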

| SMILES | Kinact/Kl [M⁻¹ s⁻¹] |
| --- | --- |
| Cc1cc(C(F)(F)F)cc(N2C(=O)C[C@@H]3CN(CCCOC4CN(C(=O)C5=CCCNC5)C4)c4c(C)cccc4N(C)C(=O)[C@H]32)n1 [Example 82, (3aR,11aS)-6,10-dimethyl-1-(6-methyl-4-(trifluoromethyl)pyridin-2-yl)-5-(3-((1-(1,2,5,6-tetrahydropyridine-3-carbonyl)azetidin-3-yl)oxy)propyl)-1,3a,4,5,10,11a-hexahydro-2H-benzo[b]pyrrolo[2,3-f][1,4]diazocine-2,11(3H)-dione] | 920000 |
| Cc1cc(C(F)(F)F)cc(N2C(=O)C[C@@H]3CN(CCCCCNC(=O)/C=C/CN(C)C)c4c(C)cccc4N(C)C(=O)[C@H]32)n1 [Example 83, (E)-N-(5-((3aR,11aS)-6,10-dimethyl-1-(6-methyl-4-(trifluoromethyl)pyridin-2-yl)-2,11-dioxo-1,2,3,3a,4,10,11,11a-octahydro-5H-benzo[b]pyrrolo[2,3-f][1,4]diazocin-5-yl)pentyl)-4-(dimethylamino)but-2-enamide] | 620000 |
| C=C(CN(C)C)C(=O)NCCCCCN1C[C@H]2CC(=O)N(c3cc(C(F)(F)F)cc(C)n3)[C@@H]2C(=O)N(C)c2cccc(C)c21 [Example 84, N-(5-((3aR,11aS)-6,10-dimethyl-1-(6-methyl-4-(trifluoromethyl)pyridin-2-yl)-2,11-dioxo-1,2,3,3a,4,10,11,11a-octahydro-5H-benzo[b]pyrrolo[2,3-f][1,4]diazocin-5-yl)pentyl)-2-((dimethylamino)methyl)acrylamide] | 3.61e+06 |
| C=C(CN(C)C)C(=O)NCCOCCN1C[C@H]2CC(=O)N(c3cc(C(F)(F)F)cc(C)n3)[C@@H]2C(=O)N(C)c2cccc(C)c21 [Example 85, N-(2-(2-((3aR,11aS)-6,10-dimethyl-1-(6-methyl-4-(trifluoromethyl)pyridin-2-yl)-2,11-dioxo-1,2,3,3a,4,10,11,11a-octahydro-5H-benzo[b]pyrrolo[2,3-f][1,4]diazocin-5-yl)ethoxy)ethyl)-2-((dimethylamino)methyl)acrylamide] | 1.82e+06 |
| C=C(CN(C)C)C(=O)N1CCN(C(=O)CCN2C[C@H]3CC(=O)N(c4cc(C(F)(F)F)cc(C)n4)[C@@H]3C(=O)N(C)c3cccc(Cl)c32)CC1 [Example 86, (3aR,11aS)-6-chloro-5-(3-(4-(2-((dimethylamino)methyl)acryloyl)piperazin-1-yl)-3-oxopropyl)-10-methyl-1-(6-methyl-4-(trifluoromethyl)pyridin-2-yl)-1,3a,4,5,10,11a-hexahydro-2H-benzo[b]pyrrolo[2,3-f][1,4]diazocine-2,11(3H)-dione] | 3.49e+06 |
| C=CC(=O)Nc1ccc(CN2C[C@H]3CC(=O)N(c4cc(C(F)(F)F)cc(C)n4)[C@@H]3C(=O)N(C)c3cccc(C)c32)cc1 [Example 87, N-(4-(((3aR,11aS)-6,10-dimethyl-1-(6-methyl-4-(trifluoromethyl)pyridin-2-yl)-2,11-dioxo-1,2,3,3a,4,10,11,11a-octahydro-5H-benzo[b]pyrrolo[2,3-f][1,4]diazocin-5-yl)methyl)phenyl)acrylamide] | 810000 |
| Cc1cc(C(F)(F)F)cc(N2C(=O)C[C@@H]3CN(Cc4ccc(NC(=O)C5=CCCNC5)cc4)c4c(C)cccc4N(C)C(=O)[C@H]32)n1 [Example 88, N-(4-(((3aR,11aS)-6,10-dimethyl-1-(6-methyl-4-(trifluoromethyl)pyridin-2-yl)-2,11-dioxo-1,2,3,3a,4,10,11,11a-octahydro-5H-benzo[b]pyrrolo[2,3-f][1,4]diazocin-5-yl)methyl)phenyl)-1,2,5,6-tetrahydropyridine-3-carboxamide] | 4.75e+06 |
| C/C=C(\CN(C)C)C(=O)Nc1ccc(CN2C[C@H]3CC(=O)N(c4cc(C(F)(F)F)cc(C)n4)[C@@H]3C(=O)N(C)c3cccc(C)c32)cc1 [Example 89, (E)-N-(4-(((3aR,11aS)-6,10-dimethyl-1-(6-methyl-4-(trifluoromethyl)pyridin-2-yl)-2,11-dioxo-1,2,3,3a,4,10,11,11a-octahydro-5H-benzo[b]pyrrolo[2,3-f][1,4]diazocin-5-yl)methyl)phenyl)-2-((dimethylamino)methyl)but-2-enamide] | 2.4e+06 |
| C=CC(=O)Nc1ccc(CN2C[C@H]3CC(=O)N(c4cc(C(F)(F)F)cc(C)n4)[C@@H]3C(=O)N(C)c3cccc(C)c32)cc1OC [Example 90, N-(4-(((3aR,11aS)-6,10-dimethyl-1-(6-methyl-4-(trifluoromethyl)pyridin-2-yl)-2,11-dioxo-1,2,3,3a,4,10,11,11a-octahydro-5H-benzo[b]pyrrolo[2,3-f][1,4]diazocin-5-yl)methyl)-2-methoxyphenyl)acrylamide] | 2.09e+06 |
| C=CC(=O)Nc1ccc(CN2C[C@H]3CC(=O)N(c4cc(C(F)(F)F)cc(C)n4)[C@@H]3C(=O)N(C)c3cccc(C)c32)cc1N(C)CCN(C)C [Example 91, N-(4-(((3aR,11aS)-6,10-dimethyl-1-(6-methyl-4-(trifluoromethyl)pyridin-2-yl)-2,11-dioxo-1,2,3,3a,4,10,11,11a-octahydro-5H-benzo[b]pyrrolo[2,3-f][1,4]diazocin-5-yl)methyl)-2-((2-(dimethylamino)ethyl)(methyl)amino)phenyl)acrylamide] | 4.38e+06 |

Further lines, results first:

| Kinact/Kl [M⁻¹ s⁻¹] | SMILES |
| --- | --- |
| 2.56e+06 | C=CC(=O)N1CC(N2CCC(CN3C[C@H]4CC(=O)N(c5cc(C(F)(F)F)cc(C)n5)[C@@H]4C(=O)N(C)c4cccc(Cl)c43)CC2)C1 [Example 92, (3aR,11aS)-5-((1-(1-acryloylazetidin-3-yl)piperidin-4-yl)methyl)-6-chloro-10-methyl-1-(6-methyl-4-(trifluoromethyl)pyridin-2-yl)-1,3a,4,5,10,11a-hexahydro-2H-benzo[b]pyrrolo[2,3-f][1,4]diazocine-2,11(3H)-dione] |
| 2.73e+06 | C=CC(=O)N1CC(N2CCC(CN3C[C@H]4CC(=O)N(c5cc(C(F)(F)F)cc(C)n5)[C@@H]4C(=O)N(C)c4cccc(C)c43)CC2)C1 [Example 93, (3aR,11aS)-5-((1-(1-acryloylazetidin-3-yl)piperidin-4-yl)methyl)-6,10-dimethyl-1-(6-methyl-4-(trifluoromethyl)pyridin-2-yl)-1,3a,4,5,10,11a-hexahydro-2H-benzo[b]pyrrolo[2,3-f][1,4]diazocine-2,11(3H)-dione] |
| 1.54e+06 | C=CC(=O)N1CC(N2CCC(F)(CN3C[C@H]4CC(=O)N(c5cc(C(F)(F)F)cc(C)n5)[C@@H]4C(=O)N(C)c4cccc(C)c43)CC2)C1 [Example 94, (3aR,11aS)-5-((1-(1-acryloylazetidin-3-yl)-4-fluoropiperidin-4-yl)methyl)-6,10-dimethyl-1-(6-methyl-4-(trifluoromethyl)pyridin-2-yl)-1,3a,4,5,10,11a-hexahydro-2H-benzo[b]pyrrolo[2,3-f][1,4]diazocine-2,11(3H)-dione] |
| 810000 | C=CC(=O)N1CC(N2CCC(CN3C[C@H]4CC(=O)N(c5cc(C(F)(F)F)cc(C)n5)[C@@H]4C(=O)N(C)c4cccc(Cl)c43)C(O)C2)C1 (stereo partly drawn) [Example 96, (3aR,11aS)-5-((1-(1-acryloylazetidin-3-yl)-3-hydroxypiperidin-4-yl)methyl)-6-chloro-10-methyl-1-(6-methyl-4-(trifluoromethyl)pyridin-2-yl)-1,3a,4,5,10,11a-hexahydro-2H-benzo[b]pyrrolo[2,3-f][1,4]diazocine-2,11(3H)-dione] |
| 1.18e+06 | C=CC(=O)N1CC(N2CCN(C(C)CN3C[C@H]4CC(=O)N(c5cc(C(F)(F)F)cc(C)n5)[C@@H]4C(=O)N(C)c4cccc(F)c43)CC2)C1 (stereo partly drawn) [Example 97, (3aR,11aS)-5-(2-(4-(1-acryloylazetidin-3-yl)piperazin-1-yl)propyl)-6-fluoro-10-methyl-1-(6-methyl-4-(trifluoromethyl)pyridin-2-yl)-1,3a,4,5,10,11a-hexahydro-2H-benzo[b]pyrrolo[2,3-f][1,4]diazocine-2,11(3H)-dione] |
| 430000 | C=CC(=O)N1CC(c2nc(CN3C[C@H]4CC(=O)N(c5cc(C(F)(F)F)cc(C)n5)[C@@H]4C(=O)N(C)c4cccc(F)c43)n[nH]2)C1 [Example 98, (3aR,11aS)-5-((5-(1-acryloylazetidin-3-yl)-1H-1,2,4-triazol-3-yl)methyl)-6-fluoro-10-methyl-1-(6-methyl-4-(trifluoromethyl)pyridin-2-yl)-1,3a,4,5,10,11a-hexahydro-2H-benzo[b]pyrrolo[2,3-f][1,4]diazocine-2,11(3H)-dione] |
